The results in this text go back to ChEMBL document CHEMBL2074370, “Are MDCK cells transfected with the human MDR1 gene a good model of the human intestinal mucosa?” (Pharm Res, 2002).

Series [1] has as its target ATP-dependent translocase ABCB1 (Homo sapiens, UniProt P08183). As to the kind of experiment: TP_TRANSPORTER: inhibition of Digoxin transepithelial transport (basal to apical) in MDR1-expressing MDCK cells. Type of series: functional, cell-based.
For series [2], the system named is CC[C@]1(O)C[C@@H]2CN(CCc3c([nH]c4ccccc34)[C@@](C(=O)OC)(c3cc4c(cc3OC)N(C)[C@H]3[C@@](O)(C(=O)OC)[C@H](OC(C)=O)[C@]5(CC)C=CCN6CC[C@]43[C@@H]65)C2)C1. Briefly: TP_TRANSPORTER: transepithelial transport (basal to apical) in MDR1-expressing MDCK cells. Type of series: functional, cell-based.

Chain of ATP-dependent translocase ABCB1 (P08183 whole entry): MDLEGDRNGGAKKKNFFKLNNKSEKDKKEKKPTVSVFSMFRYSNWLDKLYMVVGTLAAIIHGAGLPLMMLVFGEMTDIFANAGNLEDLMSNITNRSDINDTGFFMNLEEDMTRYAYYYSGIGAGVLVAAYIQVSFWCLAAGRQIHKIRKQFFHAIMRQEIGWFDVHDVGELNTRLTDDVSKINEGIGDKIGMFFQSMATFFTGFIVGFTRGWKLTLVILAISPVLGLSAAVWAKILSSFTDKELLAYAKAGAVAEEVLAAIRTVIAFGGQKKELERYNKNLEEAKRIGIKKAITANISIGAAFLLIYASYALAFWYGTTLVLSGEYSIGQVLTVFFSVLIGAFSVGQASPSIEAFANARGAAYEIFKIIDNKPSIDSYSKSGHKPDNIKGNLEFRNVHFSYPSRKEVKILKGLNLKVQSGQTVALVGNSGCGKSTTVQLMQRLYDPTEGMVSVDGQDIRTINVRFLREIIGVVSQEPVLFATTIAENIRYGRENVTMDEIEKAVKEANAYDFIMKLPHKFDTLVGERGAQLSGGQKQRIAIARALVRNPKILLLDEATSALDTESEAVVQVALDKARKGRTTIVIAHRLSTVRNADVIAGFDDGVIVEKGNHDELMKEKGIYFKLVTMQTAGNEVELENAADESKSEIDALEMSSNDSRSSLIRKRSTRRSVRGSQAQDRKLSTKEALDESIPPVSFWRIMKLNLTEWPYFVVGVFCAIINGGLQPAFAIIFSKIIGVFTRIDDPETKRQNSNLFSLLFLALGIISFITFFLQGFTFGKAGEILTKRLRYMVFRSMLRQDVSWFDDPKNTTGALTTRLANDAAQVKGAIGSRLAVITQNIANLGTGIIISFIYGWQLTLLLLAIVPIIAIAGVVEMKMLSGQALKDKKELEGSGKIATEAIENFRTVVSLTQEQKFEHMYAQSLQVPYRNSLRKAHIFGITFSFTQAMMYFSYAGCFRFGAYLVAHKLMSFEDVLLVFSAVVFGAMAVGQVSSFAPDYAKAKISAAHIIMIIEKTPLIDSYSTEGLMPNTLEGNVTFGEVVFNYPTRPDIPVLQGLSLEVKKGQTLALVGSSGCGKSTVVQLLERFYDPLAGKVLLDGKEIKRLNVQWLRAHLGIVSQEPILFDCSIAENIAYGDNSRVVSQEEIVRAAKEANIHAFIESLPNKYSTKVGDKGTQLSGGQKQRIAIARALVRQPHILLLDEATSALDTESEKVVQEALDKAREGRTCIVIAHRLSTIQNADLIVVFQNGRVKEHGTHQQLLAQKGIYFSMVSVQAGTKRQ

As to `COC(=O)[C@H]1[C@H]2C[C@@H]3c4[nH]c5cc(OC)ccc5c4CCN3C[C@H]2C[C@@H](OC(=O)c2cc(OC)c(OC)c(OC)c2)[C@@H]1OC` [RESERPINE], the Ki (commonly a dissociation constant, usually derived from enzyme kinetics or from competition with a known ligand) in series [1] worked out at 11.5 µM.

Turning to “ATP-dependent translocase ABCB1 (Homo sapiens)”, the Km (usually the concentration of substrate that gives half-maximal velocity) in series [2] came out at 253 µM. In turn, `CC[C@]1(O)C[C@H]2CN(CCc3c([nH]c4ccccc34)[C@@](C(=O)OC)(c3cc4c(cc3OC)N(C=O)[C@H]3[C@@](O)(C(=O)OC)[C@H](OC(C)=O)[C@]5(CC)C=CCN6CC[C@]43[C@@H]65)C2)C1` [VINCRISTINE] returned a Ki in series [1] of 213 µM.

`COc1cccc2c1C(=O)c1c(O)c3c(c(O)c1C2=O)C[C@@](O)(C(C)=O)C[C@@H]3O[C@H]1C[C@H](N)[C@H](O)[C@H](C)O1` [DAUNORUBICIN] returned a Ki in series [1] of 111 µM.
